Experimental data as given in patent US20200045972A1, “NOVEL 5-SUBSTITUTED IMIDAZOLYLMETHYL DERIVATIVES” (Bayer CropScience Aktiengesellschaft, priority 2016, published 2020).

Test: Measurement of LogP values by HPLC on reversed phase columns (EEC directive 79/831 Annex V.A8)
Format: physicochemical
Settings: method [a]: LC-UV, acidic range, 0.1% formic acid in water and acetonitrile as eluent (linear gradient from 10% to 95% acetonitrile); for chromatographic logP: reversed phase HPLC column
Procedure: Measurement of LogP values was performed according to EEC directive 79/831 Annex V.A8 by HPLC (High Performance Liquid Chromatography) on reversed phase columns with the following methods: • ^[a] LogP value is determined by measurement of LC-UV, in an acidic range, with 0.1% formic acid in water and acetonitrile as eluent (linear gradient from 10% acetonitrile to 95% acetonitrile). • ^[b] LogP value is determined by measurement of LC-UV, in a neutral range, with 0.001 molar ammonium acetate solution in water and acetonitrile as eluent (linear gradient from 10% acetonitrile to 95% acetonitrile). • ^[c] LogP value is determined by measurement of LC-UV, in an acidic range, with 0.1% phosphoric acid and acetonitrile as eluent (linear gradient from 10% acetonitrile to 95% acetonitrile). If more than one LogP value is available within the same method, all the values are given and separated by “+”. Calibration was done with straight-chain alkan2-ones (with 3 to 16 carbon atoms) with known LogP values (measurement of LogP values using retention times with linear interpolation between successive alkanones). Lambda-max-values were determined using UV-spectra from 200 nm to 400 nm and the peak values of the chromatographic signals.

Compound | chromatographic logP | LogP
N#Cc1cncn1CC(O)(CC1CC(c2ccccc2)=NO1)C1(Cl)CC1 (racemic) [Example I-05, 1-[2-(1-chlorocyclopropyl)-2-hydroxy-3-(3-phenyl-4,5-dihydro-1,2-oxazol-5-yl)propyl]-1H-imidazole-5-carbonitrile] | 2.71 | –
N#Cc1cncn1CC(O)(CC1CC(c2ccccc2)=NO1)C1(Cl)CC1 (racemic) [Example I-06, 1-[2-(1-chlorocyclopropyl)-2-hydroxy-3-(3-phenyl-4,5-dihydro-1,2-oxazol-5-yl)propyl]-1H-imidazole-5-carbonitrile] | – | 2.59 ^[a]
N#Cc1cncn1CC(O)(Cc1cc(-c2ccccc2)no1)C1(Cl)CC1 (stereo not drawn) [Example I-03, 1-[2-(1-chlorocyclopropyl)-2-hydroxy-3-(3-phenyl-1,2-oxazol-5-yl)propyl]-1H-imidazole-5-carbonitrile] | 2.54 | –
